Here are results for 14 compounds from patent publication US5545755A, “Therapeutically useful 2-aminotetralin derivatives” (priority 1995, dated 1996).

Structures can show the parent of a compound that is named as a salt. Where two headings read alike, the source gives them in different places.

The nature of experiment [1]: Blood pressure in chloralose anesthetized cats (BP SND/MAX). It counts as in vivo. Conditions: i.v., blood pressure in percent control at the dose causing 50% depression in SND. As for the experimental part: BP SND/MAX: The blood pressure of the chloralose anesthetized cats in percent control at the dose causing 50% depression in SND and the maximum reduction in blood pressure as percent of the control blood pressure in the same animals observed in the dose range tested (0.001-1.0 mg/kg i.v.).

Experiment [2] can be described thus: Hypothermia in mice after subcutaneous injection. It counts as in vivo. Conditions: Mus musculus, sc, dose depressing temperature by 2° C. in two of four mice. As for the experimental part:
Hypothermia: Starting with a dose of 30 mg/kg, four mice are injected subcutaneously with test compound. Twenty minutes later, the number of animals whose body temperature has decreased by 2° C. or more are counted. […] The time for last statistically significant drug affect on mean body temperature is indicated in minutes. […] Potency is given as mg/kg ED50 (dose required to depress temperature in two of four mice) as measured by Spearman-Karber statistics.

In experiment [3] the test system is sympathetic nerve discharge. In words: Sympathetic Nerve Discharge (SND) in chloralose anesthetized cats. It counts as in vivo. The note with it: Felis catus, iv, dose causing 50% depression in SND. As for the experimental part: Sympathetic Nerve Discharge (SND): The i.v. mg/kg dose causing a 50% depression in SND in chloralose anesthetized cats and the maximum inhibition of sympathetic activity observed in the dose range tested (0.001-1.0 mg/kg i.v.).

For experiment [4], the target named is T1, 5-hydroxytryptamine (5-HT1A) receptor (Bos taurus, UniProt F6Q2H9).
T1 construct: bovine brain homogenate; from tissue; host or cells: bovine brain homogenate
T1 sequence (F6Q2H9 1-422): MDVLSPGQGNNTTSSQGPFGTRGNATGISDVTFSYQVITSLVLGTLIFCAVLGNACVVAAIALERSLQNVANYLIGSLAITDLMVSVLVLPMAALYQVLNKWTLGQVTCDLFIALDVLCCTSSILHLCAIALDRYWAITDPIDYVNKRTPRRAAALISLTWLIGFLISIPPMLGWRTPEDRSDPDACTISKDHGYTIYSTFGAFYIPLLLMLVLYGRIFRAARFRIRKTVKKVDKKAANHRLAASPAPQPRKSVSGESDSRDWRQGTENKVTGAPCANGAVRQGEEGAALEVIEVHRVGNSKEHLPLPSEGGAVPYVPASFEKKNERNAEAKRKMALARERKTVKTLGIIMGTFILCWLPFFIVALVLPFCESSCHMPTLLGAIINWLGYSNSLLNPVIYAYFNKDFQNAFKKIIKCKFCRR
The experiment in a line: Inhibition of 8-OH-DPAT binding in a bovine brain homogenate (5-HT1A binding). From the text: Binding: Inhibition of 8-OH-DPAT binding in a bovine brain homogenate. Potency is given as nM dose required to inhibit 50% of DPAT binding (IC50). This test measures ability to bind to 5-hydroxytryptamine (5-HT1A) receptor.

For experiment [5] the following is noted: Chem. Ab., 79:146294b; cited from earlier work.
For experiment [6] the following is noted: J. Pharm. Sci., 67, 880-82 (1978); cited from earlier work.
In another experiment the test system is dopamine receptors. The note with it: cited from earlier work.
A further experiment deals with D2 receptor (Homo sapiens, UniProt P14416). The experiment in a line: Dopamine D2 receptor in vitro binding. From the text: The compounds of this invention where R1 is in the 8 position in the aromatic ring are very selective 5-HT1A receptor agonists having little or no dopaminergic activity. […] Both these features are beneficial to effective clinical treatment.
Sequence of D2 receptor (P14416 whole entry): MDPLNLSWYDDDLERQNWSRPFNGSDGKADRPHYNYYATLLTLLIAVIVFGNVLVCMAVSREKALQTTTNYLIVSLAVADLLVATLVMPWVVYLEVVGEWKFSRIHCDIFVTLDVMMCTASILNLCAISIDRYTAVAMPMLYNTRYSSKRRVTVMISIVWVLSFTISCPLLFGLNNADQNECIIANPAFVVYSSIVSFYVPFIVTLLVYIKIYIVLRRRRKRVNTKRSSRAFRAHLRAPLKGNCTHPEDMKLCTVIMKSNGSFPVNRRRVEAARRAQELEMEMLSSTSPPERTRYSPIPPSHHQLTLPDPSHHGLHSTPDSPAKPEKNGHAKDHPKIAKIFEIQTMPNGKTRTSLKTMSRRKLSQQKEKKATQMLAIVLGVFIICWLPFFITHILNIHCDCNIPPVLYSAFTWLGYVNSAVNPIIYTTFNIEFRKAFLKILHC

For experiment [7] the following is noted: some patients; cited from earlier work.

With `C=CCN(CC=C)C1CCc2ccccc2C1.Cl` (racemic) [Example 21 Compound 6, (+-)-1,2,3,4-Tetrahydro-N,N-di-2-propenyl-2-naphthalenamine hydrochloride], the “% BD (at SND ED50)” value in experiment [1] is recorded as 52.0%. The values for the 50% effective dose (ED50) in experiment [2] and in experiment [3] were 0.97 mg/kg and 0.6 mg/kg, respectively. In [4], the IC50 – broadly, the concentration that inhibits the measured activity by half – was found to be 50.7 nM.
`C=CCN[C@@H]1CCc2cccc(OC)c2[C@@H]1CC=C` (relative stereo) [Example 26 Compound 1, Cis-(+-)-1,2,3,4-Tetrahydro-8-methoxy-N,1-di-(2-pro-penyl)-2-naphthalenamine hydrochloride]: the “% BD (at SND ED50)” value in experiment [1] worked out at 70.0%. In addition, the 50% effective dose (ED50) (as a rule, the dose that gives a 50% effect, or the effect in half of the subjects) turned out to be 2.31 mg/kg in experiment [2] and 0.16 mg/kg in experiment [3].
In the case of `Brc1cccc2c1CC(N1CCCC1)CC2` (single isomer, unassigned; (+)) [Compound 59-1, (+)-1,2,3,4-tetrahydro-2-pyrrolidino-8-bromo-tetralin], the IC50 in experiment [4] (read-out: 5-HT1A Binding IC50) amounted to 4 nM.
Take `NC(=O)c1cccc2c1CC(N1CCCC1)CC2` (single isomer, unassigned; (+)) [Compound 60-1, (+)-1,2,3,4-tetrahydro-2-pyrrolidino-naphthalene-8-yl-carboxamide]: the IC50 in experiment [4] (read-out: 5-HT1A Binding IC50) stood at 10.9 nM.
With `CN(C)C1CCc2ccc(O)cc2C1(C)C` (stereo not shown) [1,1-Dimethyl-2-(N,N-dimethylamino)-7-hydroxytetralin], the “analgesic and intestinal movement accelerating actions” value in experiment [5] was “analgesic and intestinal movement accelerating actions”.
In the case of `COc1cccc2c1CCC(NC1CC1)C2C` (stereo not shown) [1-methyl-2-(cyclopropylamino)-5-methoxytetralin], the local anesthetic activity entry in [6] is given as “possess local anesthetic activity”.
With `O=C1CC2(CCCC2)CC(=O)N1CCCCN1CCN(c2ncccn2)CC1` [Buspirone], the dopamine receptor antagonism result in the experiment on dopamine receptors is listed as “antagonizes dopamine receptors at the same dose it stimulates 5-HT1A receptors”.
For the compound `c1ccc2c(c1)CCC(N1CCCCCC1)C2` (stereo not shown) [Compound 57-3, Hexahydro-1-(1,2,3,4-tetrahydro-2-naphthalenyl)-1H-Azepine], in [1], the “% BD (at SND ED50)” value worked out at 75.0%. In addition, the values for the 50% effective dose (ED50) in [2] and in experiment [3] were 2.3 mg/kg and 0.62 mg/kg, respectively. For the same compound, the IC50 in experiment [4] (read-out: 5-HT1A Binding IC50) was 103 nM.
With `NC(=O)c1cccc2c1CC(N1CCCCCC1)CC2` (stereo not shown) [Compound 58-1, (1-Hexahydroazepinyl)-5,6,7,8-tetrahydronaphthalene-1-carboxamide], the IC50 on D2 receptor was greater than 1000 nM; in experiment [4] (read-out: 5-HT1A Binding IC50) it was 26 nM. Also, the ED50 in [2] is 2.3 mg/kg.
On to `CCCN(CC1CC1)C1CCc2cccc(C(N)=O)c2C1` (stereo not shown) [Example 5 Compound 2, 1,2,3,4-Tetrahydro-2-N-cyclopropylmethyl-2-N-propyl-8-yl-carboxamide], for which the “% BD (at SND ED50)” value in experiment [1] is 40.0%. Moreover, the ED50 in experiment [2] was 0.31 mg/kg; in experiment [3], 0.33 mg/kg. Moreover, in experiment [4] (read-out: 5-HT1A Binding IC50), the IC50 was found to be 13 nM.
As to `C=CCN(C)C1CCc2cccc(OC)c2C1.Cl` (stereo not shown) [Example 15 Compound 12, 1,2,3,4-Tetrahydro-8-methoxy-N-methyl-N-2-propenyl-2-Naphthalenamine hydrochloride], the “% BD (at SND ED50)” value in experiment [1] came out at 79.0%. Moreover, the ED50 in [2] is 1.2 mg/kg; in [3], 0.012 mg/kg. Further, the half-inhibitory concentration (IC50) in [4] was determined as 7.9 nM.
In the case of `C=CCNC1CCc2cccc(OC)c2C1.Cl` (stereo not shown) [Example 15 Compound 27, 1,2,3,4-Tetrahydro-8-methoxy-N-2-propenyl-2-naphthalenamine hydrochloride], the “% BD (at SND ED50)” value in experiment [1] was 62.0%. In addition, the values for the ED50 in experiment [2] and in experiment [3] were 0.31 mg/kg and 0.1 mg/kg, respectively. The compound further registered a concentration for half-maximal inhibition (IC50) in [4] of 8.9 nM.
For `C=CCNC1CCc2cccc(O)c2C1.Cl` (stereo not shown) [Example 19 Compound 2, 5,6,7,8-tetrahydro-7-(2-propenyl)amino-1-naphthalenol hydrochloride], the “% BD (at SND ED50)” value in [1] was determined as 78.0%. The results for the ED50 in experiment [2] and in [3] were 0.73 mg/kg and 0.01 mg/kg, respectively. Further, the half-maximal inhibitory concentration (IC50) in experiment [4] was 3.5 nM.
As to `CC1(C)CC(=O)N(CCCCN2CCN(c3ncccn3)CC2)C(=O)C1` [Gepirone], the dopamine receptor antagonism entry with dopamine receptors is on record as “has dopamine antagonist properties”. Besides, the “effect on depressive endpoints” value in experiment [7] is recorded as “ameliorative effects on some depressive endpoints in some patients”.
